We go through one substance from patent US20110251158A1, “FULLERENE THERAPIES FOR INFLAMMATION AND INHIBITION OF BUILD-UP OF ARTERIAL PLAQUE” (Luna Innovations Incorporated, priority 2008, published 2011).

The subject of one data set is MC-induced anaphylaxis. The data set is described as follows: MC-dependent anaphylaxis model: core body temperature. The settings on record: 100 ng i.p. before DNP-BSA challenge. The class given is in vivo, mice (C57BL/6J).
The test system of the next data set is mice. The data set is described as follows: Liver toxicity: serum ALT and AST activity after FD injection. The format is in vivo. Particulars: tail vein injection. The procedure:
To examine potential toxicity, alanine aminotranferease (ALT) and aspartate aminotransferase (AST) were measured in serum. These enzymes leak out into the general circulation when the liver is injured. Mice were treated with or without 1000 μg/100 μl (50 times more than used for the in vivo study) of TGA or Inos by tail vein injection and i.p. After two and 14 days mice were sacrificed and blood, obtained by cardiac puncture. ALT and AST activity were measured as described in Booth, G., Newham, P., Barlow, R., Raines, S., Zheng, B., and Han, S. Autoimmunity 41, 512-521 (2008). Data is presented as an average of 4 (Untreated) or 4 (Treated) mice±Standard Deviation.

The next data set deals with Fyn. The data set is described as follows: Fyn protein level in MC. The class given is cell-based, human. The settings on record: pre-incubated with TGA. The procedure: Mast cells (1×10^7 cell/condition; each condition performed in triplicate) were incubated with or without fullerene derivatives as above and incubated with or without anti-FcεRI antibodies for 10 minutes, supernatants were removed (to remove pre-formed mediators), and fresh warm medium containing anti-FcεRI antibodies (14 ml) added for 2 hours. Cells were centrifuged, the supernatant and the pellet immediately frozen and microarray performed using the Human Whole Genome OneArray™ gene expression profiling service (Phalanx Biotech Group). Separate samples, assayed in parallel were lysed and protein expression analyzed by Western blotting or flow cytometry (CD45) as described in Kepley, C. L., Pfeiffer, J., Wilson, B. W., Schwartz, L. B., and Oliver, J. M. J. Leukocyte Biol. 64, 474-483 (1998).
Downregulation observed at the gene level was verified at the protein level for several representative molecules using Western blotting or flow cytometry.

The subject of the next data set is ROS. The data set is described as follows: FcεRI-induced ROS (DCF) in MC. The class given is cell-based, human. Particulars: 10 μg/mL overnight; anti-FcεRI 1 μg/mL. The procedure:
MC were pre-treated with or without fullerene derivatives as above, washed with Tyrodes buffer supplemented with BSA, and incubated with Fura-2 AM (2 μM) for 30 minutes at 37° C. Cells were washed, stimulated with anti-FcεRI, and calcium flux measured in real time on a Perkin Elmer LS55 Spectrofluorometer. For ROS production, cells were exposed to fullerene derivatives as above. After washing, cells were re-suspended in X-Vivo medium containing 5 μM dichlorodihydrofluorescein (DCF) at 37° C. for 30 minutes, washed, and activation-induced changes in mean fluorescence was measured with excitation at 502 nm and emission at 523 nm for 15 minutes (19). The data is presented as fluorescence intensity of the 523 nm emission over time. All experiments were performed in triplicate and degranulation was measured in parallel.
Cells were incubated with or without fullerene derivative (10 μg/mL) overnight. The next day cells were challenged with anti-FcεRI (3B4; 1 μg/mL) and calcium stores release was determined by the 340/380 nm ratio (FIGS. 11A and 11B) and ROS measured by DCF detection at 523 nm (FIGS. 11C and 11D). FIGS. 11A and 11C contain cells incubated with the TGA fullerene derivative, and FIGS. 11B and 11D contain cells incubated with the Inos fullerene derivative (10 μg/mL). […]

Another data set can be described thus: Ames test. The settings on record: not shown. The source says: Taken together, the derivatives described herein are not cytotoxic to several cell lines tested and appear to have no acute in vivo cytotoxic effects.
On the technique in general: The Ames test detects mutagens through reverse mutation in bacteria.

The subject of a further data set is inflammatory arthritis. The data set is described as follows: Murine arthritis model (arthritogenic serum): clinical indices and ankle swelling. The format is in vivo, mice (C57/B6). How it is done: To induce disease, C57/B6 (5 mice/cage/group) mice were injected intraperitoneally (IP) on Days 1 and 3 with 100 μl of arthritogenic serum. […] As a control 100 μl of PBS without serum was injected in the control group. Swelling in each ankle was measured along with the clinical indices as described (Lee, D M, Science 2002, Sep. 6; 297(5587):1689-92). Measurements were performed every second day by personnel blinded to the identity of the injections. After 14 days mice were sacrificed and ankle sections removed for histology and serum obtained for cytokine analysis. Error bars, SEM. In FIG. 5A, clinical index was given as the sum of observed inflammation (per paw): 0=no evidence of inflammation; 1=subtle inflammation (metatarsal phalanges joints, individual phalanx, or localized edema); 2=easily identified swelling but localized to either dorsal or ventral surface of paw; and 3=swelling on all aspects of paw. Maximum score=12. In FIG. 5B, the sum of the measurement in ankle swelling at each day was given. The * indicates significant differences observed on that day in fullerene compared to non-fullerene-treated mice. Prior to injection, 5 was incorporated into liposomes with egg phosphatidylcholine (PC) at a ratio of 1:2. 7 was dissolved in PBS buffer at pH 7.4. […]

On to C70-tetraglycolic acid [TGA], for which the “anaphylactic-induced drop in core body temperature” value with MC-induced anaphylaxis is on record as “significant reduction”. Besides, the “Alanine aminotransferase (ALT) Activity” value in the data set with mice (Day 2) is 29.2; in the data set with mice (Day 14), 36.7. The figures for the “Aspartate aminotransferase (AST) Activity” value in the data set with mice (Day 2) and in the data set with mice (Day 14) were 8.5 and 29.8, respectively. In the data set on Fyn, the Fyn protein levels result is reported as “no change”. Further, in the data set with ROS, the “FcεRI-induced ROS” value is recorded as “inhibited”. Moreover, the mutagenic potential result in the data set “Ames test” is listed as “No mutagenic potential”. For the same substance, the Inflammation entry was “significantly inhibited” in the data set with inflammatory arthritis (200 ng/100 μl IP, days 6 to 12, p<0.03) and “significantly inhibited” in the data set on inflammatory arthritis (2000 ng/100 μl IP, days 10 to 14, p<0.02).
